The text below walks through data of ChEMBL document CHEMBL1201862, “PubChem BioAssay data set” (2004).

Among the test systems are SN12C; SR; HOP-92; SK-OV-3; NCI/ADR-RES; SF-295; 786-0; KM12; A498; CCRF-CEM; NCI-H23; NCI-H460; SF-539; K562; MDA-N; OVCAR-8; HCT-15; MOLT-4; TK-10; RXF 393.
Common to all, as to assay: growth of human tumour cells (NCI), 48 h

Structures are written as SMILES.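 Cells were grown in 96-well plates and exposed to each compound for 48 hours at five concentrations; endpoints were interpolated linearly between bracketing concentrations, or set to the highest concentration if not reached. The concentration for 50% growth inhibition is given as GI50.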 The source made the active and inactive calls. Cut-off read from the data, not from the text of the source: active = GI50 up to about 1.1 µM and inactive = higher.

For the compound `C=C1CC(COc2cc(=O)oc3ccccc23)(c2ccccc2)OC1=O` (stereo not drawn), the GI50 in the test on SN12C is 1.91 µM (inactive); in the test on SR, 6.32 µM (inactive); in the test with HOP-92 it was 1.01 µM (active); in the test with SK-OV-3, 3.27 µM (inactive); in the test with NCI/ADR-RES it was 2.96 µM (inactive); in the test with SF-295 it was 5.15 µM (inactive). The GI50 in the test with 786-0 was 1.51 µM (inactive); in the test with KM12, 3.34 µM (inactive); in the test with A498, 2.38 µM (inactive); with CCRF-CEM it was 0.625 µM (active); in the test on NCI-H23, 1.77 µM (inactive); with NCI-H460, 9.29 µM (inactive). For the same compound, the GI50 with SF-539 is 2.74 µM (inactive); in the test with K562, 0.637 µM (active); with MDA-N, 2.05 µM (inactive); in the test on OVCAR-8, 1.86 µM (inactive); with HCT-15, 1.82 µM; in the test on MOLT-4, 7.94 µM (inactive). In addition, the GI50 with TK-10 is 1.59 µM (inactive).
Take `COc1ccc(-c2nc3c(C(=O)NCCN(C)C)cccc3c3ccccc23)cc1`: the GI50 was 4.2 µM (inactive) in the test on SN12C; 2.43 µM (inactive) in the test with SR; 3.51 µM (inactive) in the test with HOP-92; 7.31 µM (inactive) in the test with NCI/ADR-RES; 2.18 µM (inactive) in the test with SF-295; 2.49 µM (inactive) with 786-0. The GI50 is 3.58 µM (inactive) in the test on KM12; 2.98 µM (inactive) in the test on A498; 2.77 µM (inactive) in the test with CCRF-CEM; 6.07 µM (inactive) with NCI-H23; 2.45 µM (inactive) in the test on NCI-H460; 2.21 µM (inactive) with SF-539. The GI50 in the test with K562 was 2.06 µM (inactive); with MDA-N it was 2.26 µM (inactive); in the test on OVCAR-8 it was 4.4 µM (inactive); in the test on HCT-15 it was 2.92 µM; in the test with MOLT-4, 2.07 µM (inactive); in the test with TK-10, 7.67 µM (inactive).
Turning to `Cc1ccc(C)c2c1C/C(=C\c1ccccc1C(=O)O)C2=O`, the GI50 with SN12C was > 100 µM (inactive); in the test on SR, 36.1 µM (inactive); with HOP-92, > 100 µM (inactive); in the test with NCI/ADR-RES, > 100 µM (inactive); in the test with SF-295, > 100 µM (inactive); in the test on RXF 393, > 100 µM (inactive). Also, the GI50 is > 100 µM (inactive) in the test with 786-0; > 100 µM (inactive) in the test with KM12; > 100 µM (inactive) with A498; 55.6 µM (inactive) with CCRF-CEM; > 100 µM (inactive) with NCI-H23; > 100 µM (inactive) with NCI-H460. Besides, the GI50 in the test on SF-539 was 18.5 µM (inactive); in the test with K562, 87.7 µM (inactive); in the test on MDA-N, 87.3 µM (inactive); in the test on OVCAR-8 it was > 100 µM (inactive); with HCT-15 it was 77.4 µM; in the test on MOLT-4, 86.9 µM (inactive). In addition, in the test on TK-10, the GI50 was > 100 µM (inactive).
On to `COc1ccc(C2=Nc3c(nc(SC)[nH]c3=O)NC(c3ccccc3)C2)cc1` (stereo not drawn), for which the GI50 was 20.9 µM (inactive) in the test with SN12C; 73.3 µM (inactive) in the test on SR; 46.3 µM (inactive) in the test on HOP-92; 18.1 µM (inactive) with SK-OV-3; 20 µM (inactive) in the test with NCI/ADR-RES; 27.4 µM (inactive) in the test with SF-295. Moreover, the GI50 in the test with RXF 393 was 20.7 µM (inactive); in the test with 786-0, 26.3 µM (inactive); in the test on KM12 it was 16.6 µM (inactive); with A498 it was 33.3 µM (inactive); with CCRF-CEM, 29 µM (inactive); in the test on NCI-H23, 20.6 µM (inactive). Further, the GI50 was 19.4 µM (inactive) in the test with SF-539; 25.1 µM (inactive) with K562; 16.9 µM (inactive) in the test with MDA-N; 19.4 µM (inactive) in the test with OVCAR-8; 18.7 µM (inactive) with MOLT-4.
Take `CC1=NN(c2cccc(S(=O)(=O)O)c2)C2(C1)SCC(=O)N2c1nc2ccccc2s1` (stereo not drawn): the GI50 is > 100 µM (inactive) with SN12C; 35.7 µM (inactive) with SR; > 100 µM (inactive) in the test on HOP-92; > 100 µM (inactive) in the test with SK-OV-3; > 100 µM (inactive) in the test with NCI/ADR-RES; > 100 µM (inactive) in the test on SF-295. The GI50 with RXF 393, in the test with 786-0, with KM12, in the test on A498, in the test with NCI-H23 and in the test on NCI-H460 was > 100 µM (inactive) in each case. The GI50 in the test on SF-539 was 17.6 µM (inactive); with K562 it was > 100 µM (inactive); in the test on MDA-N, > 100 µM (inactive); with OVCAR-8, > 100 µM (inactive); with HCT-15, > 100 µM; with MOLT-4, > 100 µM (inactive). Moreover, the GI50 in the test with TK-10 is > 100 µM (inactive).
Consider `c1ccc(P(CCP(c2ccccn2)c2ccccn2)c2ccccc2)cc1`, for which the GI50 with SN12C is 14 µM (inactive); with SR, 19.4 µM (inactive); with HOP-92, 3.01 µM (inactive); in the test with SK-OV-3, 48.9 µM (inactive); in the test with NCI/ADR-RES it was > 100 µM (inactive); with SF-295, 0.497 µM (active). The GI50 in the test on RXF 393 was 19.8 µM (inactive); in the test on 786-0 it was 11.9 µM (inactive); in the test with KM12 it was 0.286 µM (active); in the test on A498, 12.8 µM (inactive); in the test with NCI-H23 it was < 0.01 µM (active); in the test with NCI-H460, 0.196 µM (active). Also, the GI50 in the test on SF-539 was 0.577 µM (active); in the test with K562, 0.0783 µM (active); in the test with MDA-N, 4.57 µM (inactive); in the test on OVCAR-8, 0.108 µM (active); with HCT-15, > 100 µM; in the test on MOLT-4 it was 80.2 µM (inactive). Further, the GI50 with TK-10 is 26.5 µM (inactive).
`CC1NC(=O)c2c(-c3ccccc3)nn(-c3ccccc3)c2NC1=O` (stereo not drawn): the GI50 in the test on SN12C, in the test with SR, in the test with HOP-92, in the test on SK-OV-3, in the test on NCI/ADR-RES and in the test with SF-295 was > 100 µM (inactive) throughout. The GI50 in the test on RXF 393, in the test on 786-0, in the test with KM12, in the test on A498, with CCRF-CEM and with NCI-H23 was > 100 µM (inactive) throughout. Also, the GI50 was > 100 µM (inactive) in the test on NCI-H460; > 100 µM (inactive) in the test on K562; > 100 µM (inactive) in the test with MDA-N; > 100 µM (inactive) in the test with OVCAR-8; > 100 µM in the test with HCT-15; > 100 µM (inactive) in the test on MOLT-4. For the same compound, the GI50 in the test with TK-10 was > 100 µM (inactive).
Take `COC(=O)[C@@H]1CS(=O)(=O)C(C(C)C)N1C(C)=O` (stereo partly drawn): the GI50 in the test with SN12C, in the test with SR, with HOP-92, in the test on SK-OV-3, in the test on NCI/ADR-RES and in the test on SF-295 was > 100 µM (inactive) in each case. Also, the GI50 in the test with RXF 393, with 786-0, with KM12, in the test with A498, in the test with NCI-H23 and in the test on NCI-H460 was > 100 µM (inactive) in each case. Besides, the GI50 in the test with SF-539 was > 100 µM (inactive); with K562, > 100 µM (inactive); in the test with MDA-N, > 100 µM (inactive); with OVCAR-8, > 100 µM (inactive); with HCT-15, > 100 µM; with TK-10, > 100 µM (inactive).
For `Cn1c2c(c3ccccc31)CCN1C(=O)C34CCCC3CC21S4` (stereo not drawn), the GI50 in the test with SN12C, in the test with SR, with HOP-92, with SK-OV-3, in the test on NCI/ADR-RES and in the test with SF-295 was > 100 µM (inactive) in each case. For the same compound, the GI50 in the test with RXF 393, in the test on 786-0, in the test with KM12, in the test on A498, with NCI-H23 and with SF-539 was > 100 µM (inactive) in each case. For the same compound, the GI50 in the test on K562 is > 100 µM (inactive); in the test on MDA-N, > 100 µM (inactive); in the test with OVCAR-8 it was > 100 µM (inactive); in the test with HCT-15, > 100 µM; with MOLT-4 it was > 100 µM (inactive); in the test with TK-10 it was > 100 µM (inactive).
For `C[C@H](CCC(=O)O)[C@H]1CC[C@H]2[C@@H]3C(=O)C[C@@H]4C[C@H](O)CC[C@]4(C)[C@H]3C[C@H](O)[C@]12C`, the GI50 in the test on SN12C, in the test on SR, in the test on HOP-92, in the test on NCI/ADR-RES, in the test with RXF 393 and with 786-0 was > 100 µM (inactive) in each case. The GI50 in the test on KM12, with A498, in the test with CCRF-CEM, in the test on NCI-H23, with NCI-H460 and with SF-539 was > 100 µM (inactive) in each case. Moreover, the GI50 in the test with K562 is > 100 µM (inactive); in the test on MDA-N, > 100 µM (inactive); in the test with OVCAR-8, > 100 µM (inactive); with HCT-15 it was > 100 µM; with MOLT-4 it was > 100 µM (inactive); in the test on TK-10, > 100 µM (inactive).
Consider `CO[C@H]1C[C@H](O[C@H]2CC[C@]3(C=O)[C@H]4CC[C@]5(C)[C@@H](C6=CC(=O)OC6)CC[C@]5(O)[C@@H]4CC[C@]3(O)C2)O[C@H](C)[C@H]1O` [CYMARIN], for which the GI50 was 0.042 µM (active) in the test with SN12C; 0.409 µM (active) with SR; 0.341 µM (active) in the test on HOP-92; 0.114 µM (active) with SK-OV-3; 0.257 µM (active) in the test on NCI/ADR-RES; 0.133 µM (active) in the test on SF-295. The GI50 was 0.0467 µM (active) in the test on RXF 393; 0.137 µM (active) with 786-0; 0.402 µM (active) in the test with KM12; 0.294 µM (active) with A498; 0.157 µM (active) with NCI-H23; 0.112 µM (active) in the test with NCI-H460. The GI50 was 0.0809 µM (active) in the test on SF-539; 0.184 µM (active) with K562; 0.136 µM (active) with MDA-N; 0.307 µM (active) in the test on OVCAR-8; 0.192 µM in the test on HCT-15; 0.0883 µM (active) in the test with MOLT-4. In addition, the GI50 in the test with TK-10 is 0.167 µM (active).
